{"source": "paper PMC13376213", "about": "“Systematic discovery of motif-based interactions of the auxiliary domains of USP family deubiquitinases” (Nature Communications, 2026)", "format_in_all_cases": "binding", "key": {"[1]": {"target": "T1, USP33 zf-UBP domain (Homo sapiens, UniProt Q8TEY7)", "T1 construct": "USP33_UBP; Q8TEY7; zf-UBP; 36; 130; 6xHis-GST (N, cleaved yes); made in house; host or cells: Escherichia coli BL21-Gold (DE3)", "T1 sequence (Q8TEY7 with tags, fused parts or gaps)": "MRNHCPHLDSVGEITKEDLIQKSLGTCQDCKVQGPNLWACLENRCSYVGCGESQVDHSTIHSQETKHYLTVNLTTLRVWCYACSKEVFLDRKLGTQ", "test": "FP-monitored affinity measurements, USP33 zf-UBP", "conditions": "USP33_UBP; FP displacement by unlabelled peptide; read-out: KD", "procedure": "(§3) The measurements were performed at room temperature in a non-binding black half area 96-well plate (Corning) with a total volume of 50 μL per well. […] All measurements were performed in three technical replicates. […] The saturation curves were fitted to the quadratic equation, and the displacement curves were fitted to a sigmoidal dose-response equation as described previously[68]."}, "[2]": {"target": "T2, USP33 DUSP2 domain (Homo sapiens, UniProt Q8TEY7)", "T2 construct": "USP33_DUSP2; Q8TEY7; DUSP2; 806; 921; 6xHis-GST (N, cleaved yes); made in house; host or cells: Escherichia coli BL21-Gold (DE3)", "T2 sequence (Q8TEY7 with tags, fused parts or gaps)": "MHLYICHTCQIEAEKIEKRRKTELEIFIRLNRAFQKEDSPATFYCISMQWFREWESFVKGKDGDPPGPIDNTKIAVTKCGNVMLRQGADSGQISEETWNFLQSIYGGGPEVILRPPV", "test": "FP-monitored affinity measurements, USP33 DUSP2", "description": "(§1) Proteins were expressed in Escherichia coli (E.coli) BL21-Gold (DE3) bacteria. The cDNAs encoding N-terminal 6-histidine-glutathione S-transferase tagged (6xHis-GST), 6xHis-tagged or GST-tagged protein domains in pETM33, pETM11, pGEX6P1 expression vectors respectively, were obtained from Genescript or kindly provided by MRC-PPU (Suppl. Data 1) The bacteria were transformed with the plasmid and grew at 37 °C in 2YT (5 g/L NaCl, 16 g/L tryptone and 10 g/L yeast extract) supplemented with Kanamycin (30 μg/mL) until reaching an OD600 of 0.7. Protein expression was induced with 0.3 mM isopropyl β-D-1 thiogalactopyranoside (IPTG) for 18 h at 18 °C while shaking. For zinc-finger domains, 50 μM of ZnSO4 was added during expression. The bacterial cultures were pelleted for 15 minutes at 4000 x g at 4 °C and stored at −20 °C until purification. The pellets were resuspended in lysis buffer (1× phosphate-buffered saline (PBS), 0.5 % Triton-X, 5 mM MgCl2, 10 μg/mL lysozyme, cOmplete^TM EDTA-free protease inhibitor cocktail (Roche), 10 μg/mL DNAseI) and incubated for 1 h shaking at 4 °C. […] The supernatant was incubated with glutathione (GSH) Sepharose (Cytiva) or Ni2+ Sepharose (Cytiva) for 1 h at 4 °C while shaking. The beads with the bound protein were washed with 1x PBS and eluted with 10 mM reduced glutathione in 50 mM Tris pH 8.0. For fluorescence polarization experiments, the proteins were not eluted from the beads, and the 6xHis-GST tag was cleaved overnight on GSH Sepharose beads at 4 °C while shaking with PreScission Protease in cleavage buffer (50 mM Tris pH 7.5, 150 mM NaCl, 1 mM DTT). The sample containing the cleaved domain was separated from the tag and protease and buffer-exchanged to 50 mM sodium phosphate buffer pH 7.4 with 1 mM DTT using a PD-10 desalting column (Cytiva). The purity and size of the proteins were analyzed by SDS-PAGE electrophoresis.\n(§2) The measurements were performed at room temperature in a non-binding black half area 96-well plate (Corning) with a total volume of 50 μL per well. Peptides were obtained from GeneCust (France) with >95% purity. FITC-labeled peptides (N-terminally FITC-labeled without spacer and C-terminally amidated) were dissolved in dimethyl sulfoxide (DMSO), and unlabeled peptides (N-terminally acetylated and C-terminally amidated) were dissolved in 50 mM phosphate buffer pH 7.4. Saturation measurements were performed using a serial dilution of the protein domains in phosphate buffer (25 μL) and the addition of 10 nM FITC-labeled peptide (in phosphate buffer supplemented with 2 mM DTT) (25 μL). […] All measurements were performed in three technical replicates. The data were analyzed using GraphPad Prism version 9.2.0 for MacOS (GraphPad Software, San Diego, California USA, www.graphpad.com). The saturation curves were fitted to the quadratic equation, and the displacement curves were fitted to a sigmoidal dose-response equation as described previously."}, "[3]": {"target": "T3, USP20 DUSP2 domain (Homo sapiens, UniProt Q9Y2K6)", "T3 construct": "USP20_DUSP2; Q9Y2K6; DUSP2; 776; 894; 6xHis-GST (N, cleaved yes); made in house; host or cells: Escherichia coli BL21-Gold (DE3)", "T3 sequence (Q9Y2K6 with tags, fused parts or gaps)": "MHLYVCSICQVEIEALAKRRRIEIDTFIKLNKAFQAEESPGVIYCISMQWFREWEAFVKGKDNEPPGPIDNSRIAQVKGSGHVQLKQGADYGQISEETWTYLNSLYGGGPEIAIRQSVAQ", "test": "FP-monitored affinity measurements, USP20 DUSP2", "conditions": "USP20_DUSP2; FP displacement by unlabelled peptide; read-out: KD", "description": "as §1, §2"}, "[4]": {"target": "T4, USP20 zf-UBP domain (Homo sapiens, UniProt Q9Y2K6)", "T4 construct": "USP20_UBP; Q9Y2K6; zf-UBP; 99; 6xHis-GST (N, cleaved yes); made in house; host or cells: Escherichia coli BL21-Gold (DE3)", "T4 sequence (Q9Y2K6 4-99)": "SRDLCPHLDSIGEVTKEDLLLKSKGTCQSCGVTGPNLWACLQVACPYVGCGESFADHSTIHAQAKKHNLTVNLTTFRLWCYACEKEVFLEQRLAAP", "test": "FP-monitored affinity measurements, USP20 zf-UBP", "conditions": "USP20_UBP; FP displacement by unlabelled peptide; read-out: KD", "procedure": "as §3"}, "[5]": {"target": "T3, USP20 DUSP2 domain", "test": "Peptide SPOT array, USP20 DUSP2", "procedure": "(§4) Peptides were synthesized on cellulose membranes with standard Fluoroenylmethylox-ycarbonyl (Fmoc) chemistry using a Multipep automated synthesizer at INTAVIS (Tübingen, Germany) or ordered from JPT (PepSpots). The membranes were activated with methanol for 5 min and washed three times for 5 min with TBST (50 mM Tris, 137 mM NaCl, 2.7 mM KCl, pH 8.0, 0.05% Tween-20). The membranes were incubated with blocking buffer (5% skim milk powder in TBST) for 2 h at room temperature while shaking. The membranes were incubated with the GST-tagged protein diluted at the desired concentration in blocking buffer and incubated overnight at 4 °C while shaking. The membrane was rinsed 3 times with TBST and incubated with HRP-conjugated anti-GST antibody (Cytiva, RPN1236; 1:3000 dilution) in blocking buffer for 1 h at 4 °C while shaking. […] The images were analyzed in Fiji (ImageJ2 version 2.9.0)."}, "[6]": {"target": "T2, USP33 DUSP2 domain", "test": "Peptide SPOT array, USP33 DUSP2", "conditions": "average normalised to the highest intensity (CCDC88B = 100)", "procedure": "as §4"}, "[7]": {"conditions": "USP33_DUSP2, FP displacement by unlabelled peptide, read-out: KD"}}, "note": "Like-named read-outs stand apart in the source and are kept apart here.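 Wherever Normalize to peptide with higher intensity % is given: GST-tagged domain probed overnight at 4 °C on peptides made on cellulose membranes, bound protein detected via HRP-coupled anti-GST antibody, spot intensity from image analysis.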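 Wherever average is given: GST-tagged domain probed overnight at 4 °C on peptides made on cellulose membranes, bound protein detected via HRP-coupled anti-GST antibody, spot intensity from image analysis.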", "data": [{"compound": "CC(=O)N[C@@H](Cc1ccc(O)cc1)C(=O)N[C@@H](CCCCN)C(=O)N[C@@H](CCC(N)=O)C(=O)N[C@@H](CCC(N)=O)C(=O)N[C@@H](CCCNC(=N)N)C(=O)N[C@@H](CO)C(=O)N[C@@H](CC(=O)O)C(=O)N[C@@H](CC(C)C)C(=O)N[C@@H](C)C(=O)NCC(=O)N1CCC[C@H]1C(=O)N[C@H](C(=O)N[C@@H](CC(=O)O)C(N)=O)C(C)C", "note": "[APBA2_N334A]", "values": [{"measurement": "Kd", "setting": "[1]", "result": 112, "unit": "µM"}]}, {"compound": "CC[C@H](C)[C@H](NC(=O)[C@H](Cc1ccc(O)cc1)NC(=O)[C@@H]1CCCN1C(C)=O)C(=O)N1CCC[C@H]1C(=O)N[C@@H](CCSC)C(=O)N[C@@H](CC(=O)O)C(=O)N[C@@H](CC(=O)O)C(=O)N[C@@H](CC(=O)O)C(=O)N[C@@H](C)C(=O)N[C@@H](CCC(N)=O)C(=O)N[C@@H](CC(C)C)C(=O)N[C@@H](CCCNC(=N)N)C(=O)N[C@@H](CO)C(=O)N[C@@H](Cc1ccccc1)C(=O)N[C@@H](CC(=O)O)C(=O)N[C@@H](CCC(N)=O)C(=O)N[C@@H](CC(C)C)C(=O)N[C@@H](CO)C(N)=O", "note": "[HIF1A_F572A]", "values": [{"measurement": "Kd", "setting": "[2]; [7]", "result": "~930", "unit": "µM"}, {"measurement": "Kd", "setting": "[3]", "result": "~589", "unit": "µM"}]}, {"compound": "AQDSPIDFHLQSWMNN [CEP192]", "values": [{"measurement": "Kd", "setting": "[1]", "result": 14.1, "unit": "µM"}, {"measurement": "Kd", "setting": "[4]", "result": 37.1, "unit": "µM"}]}, {"compound": "Ac-PYIPMDDDFQARSFDQLS-NH2 [HIF1A_L574A]", "values": [{"measurement": "Kd", "setting": "[2]; [7]", "result": "~227", "unit": "µM"}, {"measurement": "Kd", "setting": "[3]", "result": 89, "unit": "µM"}]}, {"compound": "Ac-PYIPMDDKFQLRSFDQLS-NH2 [HIF1A_D571K]", "values": [{"measurement": "Kd", "setting": "[2]; [7]", "result": "~145", "unit": "µM"}, {"measurement": "Kd", "setting": "[3]", "result": 85, "unit": "µM"}]}, {"compound": "Ac-PYIPMDGEDFQLSPICPE-NH2 [HIF2A]", "values": [{"measurement": "Kd", "setting": "[2]; [7]", "result": "~1180", "unit": "µM"}, {"measurement": "Kd", "setting": "[3]", "result": "~235", "unit": "µM"}]}, {"compound": "Ac-SDDDLAWNIAPQGLQ-NH2 [GPR137B348-362]", "values": [{"measurement": "Average", "setting": "[5]; peptide SPOT array intensity minus background, sheet S5A, mean of 2 replicas", "result": 1.607}, {"measurement": "Normalize to higher intensity (%)", "setting": "[5]; peptide SPOT array, USP20 DUSP2, average normalised to the highest intensity (ARNTL2 = 100)", "result": 0.8997, "unit": "%"}, {"measurement": "Normalize to peptide with higher intensity %", "setting": "[5]; peptide SPOT array, sheet S5A, average normalized to the peptide with highest intensity (ARNTL2 = 100)", "result": 0.8997, "unit": "%"}, {"measurement": "Kd", "setting": "[2]; [7]", "result": "~228", "unit": "µM"}, {"measurement": "Kd", "setting": "[2]; competitive FP: unlabeled peptide (N-acetylated, C-amidated) against protein with 10 nM FITC-labeled peptide, 50 mM phosphate pH 7.4, room temperature, technical triplicate, read-out: KD, USP33 DUSP2", "result": "> 200", "unit": "µM"}, {"measurement": "Kd", "setting": "[3]", "result": 10.2, "unit": "µM"}, {"measurement": "Normalize to higher intensity (%)", "setting": "[6]", "result": -9.797, "unit": "%"}]}, {"compound": "Ac-YEKVKRRLDLDID-NH2 [CCP110]", "values": [{"measurement": "Kd", "setting": "[1]", "result": "~260", "unit": "µM"}, {"measurement": "Kd", "setting": "[4]", "result": "~505", "unit": "µM"}]}]}
